Assay results reported in patent publication US20140107219A1, “LOCAL ANAESTHETIC” (VITA (EUROPE) LIMITED, priority 2011, published 2014).
Values joined by “and” are separate entries in the source; they are usually repeats but may differ in a detail not shown here. Equal entries are not always repeated. Where two headings read alike, the source gives them in different places.

What was measured:
[1] = molecular target: T1, hNav1.6 sodium channels (SCN8A gene, expressed in CHO cells) (Homo sapiens, UniProt Q9UQD0); test: Automated patch clamp (PatchXpress 7000A), cloned hNav1.6 in CHO cells, tonic and phasic; format: cell-based; conditions: for inhibition at 2000 µM: CHO; for IC50: FIG. 42
T1 construct: expressed in transfected cells; host or cells: CHO cells
Experimental: In this example, the in vitro effects of 2-heptanone on the following ion channels were evaluated at room temperature using the PatchXpress 7000A (Molecular Devices), an automatic parallel patch clamp system:
(§1) 1. Cloned hNav1.2 sodium channels (SCN2A gene, expressed in CHO cells). 2. Cloned hNav1.6 sodium channels (SCN8A gene, expressed in CHO cells).
The effects of 2-heptanone were evaluated at 0.73, 1.46, 2.19, and 2.92 mg/ml with each concentration tested in two cells (n=2). The duration of exposure to each concentration of 2-heptanone was 5 minutes. Tables 2 to 5 show the individual results from each concentration followed by individual concentration-response curves. The positive controls (Table 6) confirm the sensitivity of the test systems to inhibition.
. Br. J. Pharmacol. 164, 719-730). […]

gastrocnemius muscle = test: In vivo muscle CAP (mCAP, EMG integral) after intramuscular injection, gastrocnemius muscle; parameters: species or system rat; conditions: 10.8 mg/kg intramuscular
[2] = tested on: isolated sciatic nerve of the rat; test: Evoked compound action potential (CAP) of the isolated rat sciatic nerve in a three-chamber bath (ex vivo): inhibition and recovery after washout; conditions: for IT100 / IT0: 1.41 mg/mL
[3] = molecular target: T2, hNav1.2 sodium channels (SCN2A gene, expressed in CHO cells) (Homo sapiens, UniProt Q99250); test: Automated patch clamp (PatchXpress 7000A), cloned hNav1.2 in CHO cells, tonic and phasic; format: cell-based; conditions: for inhibition at 2000 µM: CHO
T2 construct: expressed in transfected cells; host or cells: CHO cells
Text: as §1

[4] = 2 mM (0.46 mg/mL), single cells

T2 sequence (Q99250 whole entry): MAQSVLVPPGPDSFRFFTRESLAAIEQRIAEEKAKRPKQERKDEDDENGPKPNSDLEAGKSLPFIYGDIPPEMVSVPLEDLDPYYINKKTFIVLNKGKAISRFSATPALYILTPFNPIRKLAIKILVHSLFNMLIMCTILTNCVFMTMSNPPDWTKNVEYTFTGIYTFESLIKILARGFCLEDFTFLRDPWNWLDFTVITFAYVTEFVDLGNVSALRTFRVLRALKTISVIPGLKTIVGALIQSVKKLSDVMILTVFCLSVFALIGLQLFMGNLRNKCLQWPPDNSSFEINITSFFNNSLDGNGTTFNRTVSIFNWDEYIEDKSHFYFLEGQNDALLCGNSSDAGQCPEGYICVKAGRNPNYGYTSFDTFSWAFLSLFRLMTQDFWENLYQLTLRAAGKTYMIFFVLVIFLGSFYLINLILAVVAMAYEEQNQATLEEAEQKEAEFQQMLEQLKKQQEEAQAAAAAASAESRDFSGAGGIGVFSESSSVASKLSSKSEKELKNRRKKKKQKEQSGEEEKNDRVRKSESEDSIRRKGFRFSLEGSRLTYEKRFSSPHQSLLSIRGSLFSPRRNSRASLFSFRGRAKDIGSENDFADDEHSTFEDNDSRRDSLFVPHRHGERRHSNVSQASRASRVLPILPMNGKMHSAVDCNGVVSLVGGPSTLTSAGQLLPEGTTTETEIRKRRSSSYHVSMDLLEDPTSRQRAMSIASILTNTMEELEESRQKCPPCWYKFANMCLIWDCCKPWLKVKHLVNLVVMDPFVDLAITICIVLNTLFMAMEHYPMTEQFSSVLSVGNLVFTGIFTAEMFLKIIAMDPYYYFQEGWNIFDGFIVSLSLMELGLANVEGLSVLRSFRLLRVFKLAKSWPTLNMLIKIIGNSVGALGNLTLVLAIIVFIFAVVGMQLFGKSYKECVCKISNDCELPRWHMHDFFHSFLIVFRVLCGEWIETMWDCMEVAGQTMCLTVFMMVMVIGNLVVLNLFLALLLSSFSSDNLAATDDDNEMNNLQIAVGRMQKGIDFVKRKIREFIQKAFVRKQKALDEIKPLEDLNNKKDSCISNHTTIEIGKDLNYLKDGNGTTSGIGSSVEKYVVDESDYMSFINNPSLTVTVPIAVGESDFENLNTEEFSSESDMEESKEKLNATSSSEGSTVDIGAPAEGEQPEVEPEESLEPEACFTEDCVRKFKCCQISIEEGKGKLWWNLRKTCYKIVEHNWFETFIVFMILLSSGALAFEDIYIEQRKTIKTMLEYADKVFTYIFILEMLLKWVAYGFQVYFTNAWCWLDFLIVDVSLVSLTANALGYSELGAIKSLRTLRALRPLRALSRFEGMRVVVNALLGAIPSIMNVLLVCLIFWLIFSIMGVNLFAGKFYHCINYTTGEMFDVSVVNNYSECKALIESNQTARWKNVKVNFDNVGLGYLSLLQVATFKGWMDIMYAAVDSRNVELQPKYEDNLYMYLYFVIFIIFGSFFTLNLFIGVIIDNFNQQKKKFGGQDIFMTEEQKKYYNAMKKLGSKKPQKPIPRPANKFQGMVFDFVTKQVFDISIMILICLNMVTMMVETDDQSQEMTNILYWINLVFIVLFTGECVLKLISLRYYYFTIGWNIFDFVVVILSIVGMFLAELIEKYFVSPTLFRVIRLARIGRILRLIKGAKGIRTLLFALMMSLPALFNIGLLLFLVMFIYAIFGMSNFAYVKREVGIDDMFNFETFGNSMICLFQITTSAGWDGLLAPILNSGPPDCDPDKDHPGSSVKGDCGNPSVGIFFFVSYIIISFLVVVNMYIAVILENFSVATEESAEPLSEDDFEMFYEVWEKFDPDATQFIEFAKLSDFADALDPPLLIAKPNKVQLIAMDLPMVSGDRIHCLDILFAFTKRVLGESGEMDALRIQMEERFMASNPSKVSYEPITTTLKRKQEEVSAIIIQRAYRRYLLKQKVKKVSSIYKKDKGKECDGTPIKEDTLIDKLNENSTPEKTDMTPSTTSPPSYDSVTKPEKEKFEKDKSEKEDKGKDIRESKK
T1 sequence (Q9UQD0 whole entry): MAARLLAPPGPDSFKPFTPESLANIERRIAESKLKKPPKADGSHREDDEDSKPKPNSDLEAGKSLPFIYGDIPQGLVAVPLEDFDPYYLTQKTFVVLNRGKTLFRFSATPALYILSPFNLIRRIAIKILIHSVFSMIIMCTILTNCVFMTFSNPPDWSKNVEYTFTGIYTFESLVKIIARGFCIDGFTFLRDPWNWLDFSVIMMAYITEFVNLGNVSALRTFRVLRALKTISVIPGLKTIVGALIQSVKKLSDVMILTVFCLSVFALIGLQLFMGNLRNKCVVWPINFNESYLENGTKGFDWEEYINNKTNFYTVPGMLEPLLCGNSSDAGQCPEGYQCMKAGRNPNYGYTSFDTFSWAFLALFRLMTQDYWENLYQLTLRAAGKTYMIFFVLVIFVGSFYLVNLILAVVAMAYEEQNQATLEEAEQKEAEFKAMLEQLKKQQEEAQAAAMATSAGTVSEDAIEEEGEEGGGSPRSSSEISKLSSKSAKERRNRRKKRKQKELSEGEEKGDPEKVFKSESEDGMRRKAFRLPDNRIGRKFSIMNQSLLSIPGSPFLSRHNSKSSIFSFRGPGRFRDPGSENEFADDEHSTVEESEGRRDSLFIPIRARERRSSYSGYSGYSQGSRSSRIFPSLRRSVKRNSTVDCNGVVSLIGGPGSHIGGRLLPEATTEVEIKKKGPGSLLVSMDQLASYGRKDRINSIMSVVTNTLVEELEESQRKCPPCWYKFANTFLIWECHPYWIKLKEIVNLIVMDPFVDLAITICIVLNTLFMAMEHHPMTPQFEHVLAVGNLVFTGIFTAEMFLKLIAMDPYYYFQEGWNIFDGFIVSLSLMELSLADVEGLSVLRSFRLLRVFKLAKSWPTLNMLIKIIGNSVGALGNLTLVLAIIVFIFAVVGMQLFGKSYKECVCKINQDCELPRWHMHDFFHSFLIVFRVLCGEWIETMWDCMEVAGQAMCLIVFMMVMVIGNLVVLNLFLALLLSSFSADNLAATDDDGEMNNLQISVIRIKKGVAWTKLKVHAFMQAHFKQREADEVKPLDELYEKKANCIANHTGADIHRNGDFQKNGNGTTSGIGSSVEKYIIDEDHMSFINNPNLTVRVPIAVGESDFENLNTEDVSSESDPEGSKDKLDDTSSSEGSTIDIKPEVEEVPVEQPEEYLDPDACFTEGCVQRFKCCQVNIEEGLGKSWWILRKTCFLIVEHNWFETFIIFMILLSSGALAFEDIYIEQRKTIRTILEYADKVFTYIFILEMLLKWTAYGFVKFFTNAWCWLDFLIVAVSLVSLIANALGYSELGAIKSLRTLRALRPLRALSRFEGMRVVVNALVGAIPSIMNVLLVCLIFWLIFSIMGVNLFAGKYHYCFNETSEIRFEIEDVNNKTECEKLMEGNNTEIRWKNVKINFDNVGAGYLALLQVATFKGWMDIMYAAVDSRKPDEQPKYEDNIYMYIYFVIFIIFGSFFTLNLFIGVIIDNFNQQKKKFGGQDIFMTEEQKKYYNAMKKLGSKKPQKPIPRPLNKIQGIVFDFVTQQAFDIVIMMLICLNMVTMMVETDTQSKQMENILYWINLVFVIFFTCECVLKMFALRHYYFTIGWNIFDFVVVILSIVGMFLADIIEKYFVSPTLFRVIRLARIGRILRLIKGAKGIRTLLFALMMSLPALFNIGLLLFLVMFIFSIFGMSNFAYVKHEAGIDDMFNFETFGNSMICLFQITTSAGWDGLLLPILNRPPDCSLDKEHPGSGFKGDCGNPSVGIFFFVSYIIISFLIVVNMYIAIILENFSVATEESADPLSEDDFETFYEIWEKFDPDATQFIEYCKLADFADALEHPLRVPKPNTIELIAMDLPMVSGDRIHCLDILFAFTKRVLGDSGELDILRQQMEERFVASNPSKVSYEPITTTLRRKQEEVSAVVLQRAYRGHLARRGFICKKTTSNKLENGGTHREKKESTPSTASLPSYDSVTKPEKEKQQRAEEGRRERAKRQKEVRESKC

CCN(CC)CC(=O)Nc1c(C)cccc1C [lidocaine, 2-(diethylamino)-N-(2,6-dimethylphenyl)-acetamide, reference compound]
Individual Data Points (% Inhibition), Nav1.6 (positive control) [1, 4]: 59.3%
inhibition at 2000 µM ([1]; read-out: Individual Data Points (% Inhibition), Nav1.6 (positive control), 2 mM (0.46 mg/mL), single cells): 63.8%
inhibition at 2000 µM ([1]; read-out: Mean % Inhibition of Nav1.6 (positive control), 2 mM (0.46 mg/mL)): 61.5%
hNav1.6 IC50, phasic ([1]; Example 18, mean ± SEM): 70 ± 10 µg/mL
hNav1.6 IC50, tonic ([1]; Example 18, mean ± SEM): 290 ± 10 µg/mL
IC50 ([1]; read-out: Nav1.6 IC50, phasic): 260 µM
IC50 ([1]; read-out: Nav1.6 IC50, tonic): 1100 µM
IT50 of the integral of mCAPs (gastrocnemius muscle): 19.30 ± 1.92 s
recovery of mCAP, % of initial values after 3 h (gastrocnemius muscle): 70.3±8.67% and 70.3%
IT100 / IT0 [2]: 320 ± 14.96 s
IT100 / IT0 ([2]; listed as Lidocaine): 320.3 ± 14.96 s
IT0 ([2]; 10 mM, stirred saline, individual nerves): 90 s and 150 s
IT50 (time to inhibit CAP amplitude to 50% of control) ([2]; 10 mg/mL): 12.0 ± 0.95 s
recovery of the CAP after washout, % of control ([2]; after 1.41 mg/mL): 95%
IC50 (concentration required to inhibit the CAP to 50% of control) ([2]; estimated from time-response curves, GraphPad Prism 5): 337 ± 1 µg/mL
Individual Data Points (% Inhibition), Nav1.2 (positive control) [3, 4]: 74.9%
inhibition at 2000 µM ([3]; read-out: Individual Data Points (% Inhibition), Nav1.2 (positive control), 2 mM (0.46 mg/mL), single cells): 76.1%
inhibition at 2000 µM ([3]; read-out: Mean % Inhibition of Nav1.2 (positive control), 2 mM (0.46 mg/mL)): 75.5%
